Test results from patent publication US8552015B2, “Quinazolinone derivatives and their use as CB agonists” (Novartis AG, priority 2002, dated 2013).
Where a name gives a salt, the structure may show the parent alone.

Key:
hCB1 receptor [1] = target: T1, hCB1 receptor (Homo sapiens, UniProt P21554); assay: Test IV: CB1 functional assay ([35S]GTPγS binding); format: biochemical; set-up: purchased Receptor Biology Inc RBhCB1 382200; host or cells: HEK293 cells, membrane preparation; conditions: hCB1 receptor membrane (HEK293 cells)
Description: G-protein activation is used as a functional measure of receptor-ligand association for G-protein coupled receptors. The basic mechanism behind G-protein activation is the exchange of bound guanosine 5′-diphosphate (GDP) for guanosine 5′-triphosphate (GTP). Using a radioactive, non-hydrolyzable form of GTP, such as guanosine 5′-O-(3-[^35S]thiophosphate ([^35S]GTPγS), G-protein activation is assessed by measuring the accumulation of membrane-bound radioactivity in response to receptor activation.
The plate is sealed with a topseal A cover and vortexed for 2 minutes. The plate is incubated at room temperature for 60 min., centrifuged (Beckman 6JB) at 800 g for 5 minutes and counted on a Topcount for 3 minutes.
Non-specific binding is determined using 10 μM GTPγS, and this is subtracted from all values. Basal binding is assayed in the absence of agonist and in the presence of GDP. The stimulation by agonist is defined as a percentage increase above basal levels, i.e., {[cpm(agonist)−cpm(no agonist)]/cpm(no agonist)}×100
Data are reported as mean ±S.E.M. of one to six experiments performed in triplicate. Non-linear regression analysis of concentration-response data is performed using Origin version 5, (logistics algorithm; Microcal Software Inc. MA, USA) to calculate percentage maximal effect (Emax, %) and EC50 (nM) values. […]

human CB2 receptors = target: T2, human CB2 receptors (Homo sapiens, UniProt P34972); assay: Test II: CB2 receptor binding assay ([3H]CP55940 displacement); conditions: membranes from CHOK1 cells, Ki from IC50 by Cheng-Prussoff
T2 construct: purchased Receptor Biology, Beltsville, Md; host or cells: CHOK1 cells (transfected), membrane preparation
Description: (§1) The assay mixture comprises 75 μL of membrane suspension [membranes from CHOK1 cells transfected with human CB2 receptors from Receptor Biology, Beltsville, Md.; 133 μg/mL in assay buffer (50 mM Tris-HCl, 2.5 mM EDTA, 5 mM MgCl2 5 mg/mL BSA, pH7.4), approx, 10 μg/well)], 25 μL WGA-YS beads [Yttrium silicate beads coated with wheat germ agglutinin, Amersham (40 mg/mL, 1 mg/well)), 50 μL test compound in 4% DMSO and 50 μL radioligand {[^3H]CP55940 (180 Ci/mmol), New England Nuclear; final concentration 0.125 nM, in assay buffer}. All components are mixed, shaken at room temperature for 2 hours, then counted on a Topcount. Non-saturable binding is measured in the presence of 10 μM (R)-(+)-[2,3-d]hydro-5-methyl-3-[(4-morpholinyl)methyl]pyrrolo[1,2,3-de]-1,4-benzoxazin-6-yl](1-naphthalenyl)methanone (WIN55,212-2, Tocris).
The IC50 values are calculated in ORIGIN using a logistic fit. Ki values are calculated from the IC50 values using the Cheng-Prussoff equation (Ki=IC50/(1+([L]/Kd)) where [L] is the ligand concentration.

hCB1 receptor [2] = target: T1, hCB1 receptor; assay: Test I: CB1 receptor binding assay ([3H]CP55940 displacement); set-up: purchased Receptor Biology, Beltsville, Md; host or cells: HEK293 cells (transfected), membrane preparation; conditions: membranes from HEK293 cells, Ki from IC50 by Cheng-Prussoff
Description: More particularly the agents of the invention are active at the human CB1 and CB2 receptor.
as §1, with “HEK293” for “CHOK1”, “CB1” for “CB2”, “mg/well)],” for “mg/well)),”, “(R)-(+)-[2,3-dihydro-5-methyl-3-[(4-morpholinyl)methyl]pyrrolo[1,2,3-de]-1,4-benzoxazin-6-yl](1-naphthalenyl)methanone” for “(R)-(+)-[2,3-d]hydro-5-methyl-3-[(4-morpholinyl)methyl]pyrrolo[1,2,3-de]-1,4-benzoxazin-6-yl](1-naphthalenyl)methanone”
The IC50 values are calculated in ORIGIN using a logistic fit. Ki values are calculated from the IC50 values using the Cheng-Prussoff equation (Ki=IC50/(1+([L]/Kd)) where [L] is the ligand concentration. • Test II: CB2 Receptor Binding Assay

[3] = system: neuropathic pain induced by partial ligation of the sciatic nerve; assay: Test III: Neuropathic pain model (partial ligation of the sciatic nerve, mechanical hyperalgesia); format: in vivo, Wistar-rats; conditions: p.o.; dose necessary to produce 50% reversal of hyperalgesia
From the text: Activity specifically as analgesic agents may be confirmed in accordance with standard test methods, e.g. as described in the following test. • Test III: Neuropathic Pain Model
Hyperalgesia is examined in the model of neuropathic pain induced by partial ligation of the sciatic nerve as described by Seltzer et al. (1990). Briefly, Wistar-rats (120-140 g) are anaesthetised, the left sciatic nerve exposed at mid-thigh level through a small incision and ⅓ to ½ of the nerve thickness tightly ligated within a 7.0 silk suture. The wound is closed with a single muscle suture and skin clips and dusted with Aureomycin antibiotic powder. The animals are allowed to recover and used 12-15 days following surgery.
Mechanical hyperalgesia is assessed by measuring paw withdrawal thresholds to an increasing pressure stimulus placed onto the dorsal surface of the paw using an analgesymeter (Ugo-Basile, Milan) with a cut-off of 250 g. Withdrawal thresholds are measured on both the ipsilateral (ligated) and contralateral (unligated) paw prior to (predose) and then up to 6 h following drug or vehicle administration. Data are expressed as withdrawal threshold (g) and percentage reversal of hyperalgesia calculated according to the following formula:
[formula] • Potency is expressed as D50 value, i.e. the dose of compound necessary to produce 50% reversal of hyperalgesia.

T1 sequence (P21554 whole entry): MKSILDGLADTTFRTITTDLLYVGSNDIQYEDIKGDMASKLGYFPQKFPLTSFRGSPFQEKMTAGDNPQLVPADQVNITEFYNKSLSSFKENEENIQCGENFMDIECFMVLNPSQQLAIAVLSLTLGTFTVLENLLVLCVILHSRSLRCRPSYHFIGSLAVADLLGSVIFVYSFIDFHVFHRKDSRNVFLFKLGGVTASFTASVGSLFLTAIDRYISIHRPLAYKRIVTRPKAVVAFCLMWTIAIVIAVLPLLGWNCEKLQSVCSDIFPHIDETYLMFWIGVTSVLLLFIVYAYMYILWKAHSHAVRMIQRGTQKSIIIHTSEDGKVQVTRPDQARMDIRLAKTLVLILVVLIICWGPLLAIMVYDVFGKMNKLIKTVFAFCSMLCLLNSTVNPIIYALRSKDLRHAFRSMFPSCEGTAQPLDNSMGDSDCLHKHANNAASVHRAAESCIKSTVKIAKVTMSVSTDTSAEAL
T2 sequence (P34972 whole entry): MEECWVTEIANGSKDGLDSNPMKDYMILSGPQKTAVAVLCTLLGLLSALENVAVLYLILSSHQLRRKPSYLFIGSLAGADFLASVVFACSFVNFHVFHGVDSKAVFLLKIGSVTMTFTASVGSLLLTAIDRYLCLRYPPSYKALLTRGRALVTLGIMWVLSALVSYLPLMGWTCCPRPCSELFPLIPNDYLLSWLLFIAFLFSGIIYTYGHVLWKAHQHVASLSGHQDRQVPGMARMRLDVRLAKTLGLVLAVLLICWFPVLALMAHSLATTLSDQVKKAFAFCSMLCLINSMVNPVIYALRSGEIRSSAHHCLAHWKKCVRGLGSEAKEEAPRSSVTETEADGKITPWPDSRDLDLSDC

| Compound | melting point | EC50 (hCB1 receptor [1]) | Ki (human CB2 receptors) | Ki (hCB1 receptor [2]) | D50 value in the neuropathic pain model of test III [3] |
| --- | --- | --- | --- | --- | --- |
| CCNC(=O)OCc1nc2cc(C)c(C(=O)OCC)c(C)c2c(=O)n1-c1ccccc1S(=O)(=O)NC (as salt: hydrochloride) | 126 to 130 °C |  |  |  |  |
| CCOC(=O)c1c(C)cc2nc(COC(=O)NCCO)n(-c3ccccc3S(=O)(=O)NC)c(=O)c2c1C [Example 2, 2-(2-Hydroxy-ethylcarbamoyloxymethyl)-5,7-dimethyl-3-(2-methylsulfamoyl-phenyl)-4-oxo-3,4-dihydro-quinazoline-6-carboxylic acid ethyl ester] |  | 132 ± 19 nM | 11 ± 3.5 nM | 34 ± 3 nM | 0.5 mg/kg |
